The numbers were not newly measured in US8309122B2 (Endo Pharmaceuticals Inc., priority 2001, dated 2012), which cites them from elsewhere.

The conditions of the data set: metabolized principally in the liver.

Turning to `CN1CC[C@]23c4c5ccc(O)c4O[C@H]2C(=O)CC[C@@]3(O)[C@H]1C5.Cl` [Oxymorphone, 14-hydroxydihydromorphinone hydrochloride], the oral bioavailability entry was “about 10%”.
